# Results published in patent publication US8263598B2, “Substituted sulfonamide compounds” (Gruenenthal GmbH, priority 2008, dated 2012).
# Assays:
# [1] = target: T1, B1R receptor of rats (rB1R) (Rattus norvegicus, UniProt P97583); assay: FLIPR Ca2+ assay on rat bradykinin 1 receptor (CHO K1 rB1R cells); type: cell-based; conditions: test substance 10 μM; CHO K1 cells with B1R gene of rats; agonist Des-Arg9-bradykinin 100 nM; compared to maximum achievable inhibition
# T1 construct: host or cells: CHO K1 cells
# T1 sequence (P97583 1-337): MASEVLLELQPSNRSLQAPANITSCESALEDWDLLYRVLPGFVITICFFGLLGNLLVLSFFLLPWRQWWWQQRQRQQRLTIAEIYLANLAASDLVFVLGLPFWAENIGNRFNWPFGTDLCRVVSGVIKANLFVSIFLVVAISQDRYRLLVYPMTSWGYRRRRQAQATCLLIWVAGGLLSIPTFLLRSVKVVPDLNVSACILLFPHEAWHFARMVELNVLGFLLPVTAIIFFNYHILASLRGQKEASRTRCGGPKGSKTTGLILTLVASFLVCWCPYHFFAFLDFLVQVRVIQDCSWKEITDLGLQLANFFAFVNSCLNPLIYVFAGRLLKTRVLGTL
# Description: (§1) The agonistic or antagonistic action of compounds can be quantified on the bradykinin 1 receptor (B1R) of humans and rats with ectopically expressing cell lines (CHO K1 cells) and with the aid of a Ca^2+-sensitive dye (Fluo-4) in the fluorescent imaging plate reader (FLIPR). The figure in percent activation refers to the Ca^2+ signal after addition of Lys-Des-Arg^9-bradykinin (0.5 nM) and Des-Arg^9-bradykinin (100 nM). Antagonists result in a suppression of the Ca^2+ inflow after the addition of the agonist. Percent inhibition values are given in comparison to the maximum achievable inhibition.
# (§2) The agonistic or antagonistic action of substances can be determined on the bradykinin 1 receptor (B1R) of humans and rats by means of the following assay.
# (§3) According to this assay the Ca^2+ inflow through the channel is quantified by means of a Ca^2+-sensitive dye (Fluo-4 type, Molecular Probes Europe BV, Leiden, Netherlands), in a Fluorescent Imaging Plate Reader (FLIPR, Molecular Devices, Sunnyvale, USA). Method:
# (§4) Chinese hamster ovary cells (CHO K1 cells) are used, which are stably transfected with the human B1R gene (hB1R cells, Euroscreen s.a., Gosselies, Belgium), or with the B1R gene of rats (rB1R cells, Axxam, Milan, Italy). For functional investigations these cells are plated out on black 96-well plates with a clear floor (BD Biosciences, Heidelberg, Germany) in a density of 20,000/25,000 cells/well. The cells are incubated overnight with 10 vol. % FBS (foetal bovine serum, Gibco Invitrogen GmbH, Karlsruhe, Germany) at 37° C. and 5% CO2 in a culture medium (hB1R cells: Nutrient Mixture Ham's F12, Gibco Invitrogen GmbH, Karlsruhe, Germany; rB1R cells: D-MEM/F12, Gibco Invitrogen GmbH, Karlsruhe, Germany). The following day the cells are charged for 60 minutes at 37° C. with 2.13 μM Fluo-4 (Molecular Probes Europe BV, Leiden, Netherlands) in HBSS buffer (Hank's buffered saline solution, Gibco Invitrogen GmbH, Karlsruhe, Germany) together with […] (Sigma-Aldrich, Taufkirchen, Germany) and 10 mM HEPES (Sigma-Aldrich, Taufkirchen, Germany).
# (§5) The plates are then washed twice with HBSS buffer and HBSS buffer is added which additionally contains 0.1% BSA (bovine serum albumin; Sigma-Aldrich, Taufkirchen, Germany), 5.6 mM glucose and 0.05% gelatin (Merck KGaA, Darmstadt, Germany). After further incubation for 20 minutes at room temperature the plates are used for the Ca^2+ measurement in the FLIPR. The Ca^2+-dependent fluorescence is measured both before and after the addition of substances (λex=488 nm, λem=540 nm). The quantification is carried out by measuring the highest fluorescence intensity (FC, fluorescence counts) over time.
# (§6) The FLIPR protocol consists of two substance additions. First of all test substances (10 μM) are pipetted onto the cells and the Ca^2+ inflow is compared with the control (hB1R: Lys-Des-Arg9-bradykinin 0.5 nM; rB1R: Des-Arg9-bradykinin 100 nM). This gives the result in percent activation referred to the Ca^2+ signal after addition of Lys-Des-Arg9-bradykinin (0.5 nM), bzw. Des-Arg9-bradykinin (100 nM). After 10 minutes' incubation 0.5 nM Lys-Des-Arg9-bradykinin (hB1R) and 100 nM Des-Arg^9-bradykinin (rB1R) are applied and the inflow of Ca^2+ is likewise determined. Antagonists lead to a suppression of the Ca^2+ inflow. The percent inhibition compared to the maximum achievable inhibition is calculated. The compounds show a good activity on both human and rat receptors.
# (§7) The agonistic and antagonistic action of the compounds according to the invention on the bradykinin 1 receptor (B1R) of humans and rats were determined as described above. Antagonists lead to a suppression of the Ca^2+ inflow. The % inhibition compared to the maximum achievable inhibition was calculated.
# [2] = target: T2, human B1R receptor (hB1R) (Homo sapiens, UniProt P46663); assay: FLIPR Ca2+ assay on human bradykinin 1 receptor (CHO K1 hB1R cells); type: cell-based; conditions: test substance 10 μM; CHO K1 cells with human B1R gene; agonist Lys-Des-Arg9-bradykinin 0.5 nM; compared to maximum achievable inhibition
# T2 construct: host or cells: CHO K1 cells
# T2 sequence (P46663 1-353): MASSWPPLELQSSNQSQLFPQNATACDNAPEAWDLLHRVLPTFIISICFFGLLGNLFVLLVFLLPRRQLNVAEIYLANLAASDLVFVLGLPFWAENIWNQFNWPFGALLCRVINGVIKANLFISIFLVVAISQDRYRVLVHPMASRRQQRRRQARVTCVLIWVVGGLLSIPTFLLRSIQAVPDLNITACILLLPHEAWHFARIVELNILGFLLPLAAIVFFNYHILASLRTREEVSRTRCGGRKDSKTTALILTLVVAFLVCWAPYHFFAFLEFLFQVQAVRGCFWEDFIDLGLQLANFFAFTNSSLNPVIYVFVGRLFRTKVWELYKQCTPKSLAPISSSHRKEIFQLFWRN
# Description: as §1, §2, §3, §4, §5, §6, §7
Compound,inhibition at 10 µM [1] [%],inhibition at 10 µM [2] [%],rB1R [10 μM] % Inhibition [1] [%],hB1R [10 μM] % Inhibition [2] [%]
"COc1cc(C)c(S(=O)(=O)N(C)CCOCC(=O)N2CCn3cccc3C2C(C)(C)C)c(C)c1C (stereo not drawn) [Example 79, N-(2-(2-(1-tert-butyl-3,4-dihydropyrrolo[1,2-a]pyrazin-2(1H)-yl)-2-oxoethoxy)ethyl)-4-methoxy-N,2,3,6-tetramethylbenzenesulfonamide]",100,101,–,–
"COc1ccc(C2c3cccn3CCN2C(=O)COCCN(C)S(=O)(=O)c2c(C)cc(C)cc2C)cc1 (stereo not drawn) [Example 69, N-(2-(2-(1-(4-methoxyphenyl)-3,4-dihydropyrrolo[1,2-a]pyrazin-2(1H)-yl)-2-oxoethoxy)ethyl)-N,2,4,6-tetramethylbenzenesulfonamide]",100,101,–,–
"COc1cc(C)c(S(=O)(=O)N(CCOCC(=O)N2CCn3cccc3C2C)Cc2ccccc2)c(C)c1C (stereo not drawn) [Example 40, N-benzyl-4-methoxy-2,3,6-trimethyl-N-(2-(2-(1-methyl-3,4-dihydropyrrolo[1,2-a]pyrazin-2(1H)-yl)-2-oxoethoxy)ethyl)benzenesulfonamide]",95,34,–,–
"CCC1c2cccn2CCN1C(=O)COCCN(C)S(=O)(=O)c1c(C)cc(OC)cc1C (stereo not drawn) [Example 135, N-(2-(2-(1-ethyl-3,4-dihydropyrrolo[1,2-a]pyrazin-2(1H)-yl)-2-oxoethoxy)ethyl)-4-methoxy-N,2,6-trimethylbenzenesulfonamide]",102,104,–,–
"COc1cc(C)c(S(=O)(=O)N(CCOCC(=O)N2CCn3c(CN(C)C)ccc3C2Cc2ccccc2)CC(C)C)c(C)c1C (stereo not drawn) [Example 95, N-(2-(2-(1-benzyl-6-((dimethylamino)methyl)-3,4-dihydropyrrolo[1,2-a]pyrazin-2(1H)-yl)-2-oxoethoxy)ethyl)-N-isobutyl-4-methoxy-2,3,6-trimethylbenzene-sulfonamide]",101,101,–,–
"COc1cc(C)c(S(=O)(=O)N(CCOCC(=O)N2CCn3cccc3C2c2ccccc2)Cc2ccccc2)c(C)c1 (stereo not drawn) [Example 48, N-benzyl-4-methoxy-2,6-dimethyl-N-(2-(2-oxo-2-(1-phenyl-3,4-dihydropyrrolo[1,2-a]pyrazin-2(1H)-yl)ethoxy)ethyl)benzenesulfonamide]",98,54,–,–
"N-benzyl-N-(2-(2-(6-((dimethylamino)methyl)-1-ethyl-3,4-dihydropyrrolo[1,2-a]pyrazin-2(1H)-yl)-2-oxoethyl)ethyl)-4-methoxy-2,3,6-trimethylbenzenesulfonamide [Example 122]",–,–,101,101
"COc1cc(C)c(S(=O)(=O)N(C)CCOCC(=O)N2CCn3cccc3C2c2ccccc2)c(C)c1C (stereo not drawn) [Example 84, 4-methoxy-N,2,3,6-tetramethyl-N-(2-(2-oxo-2-(1-phenyl-3,4-dihydropyrrolo[1,2-a]pyrazin-2(1H)-yl)ethoxy)ethyl)benzenesulfonamide]",99,101,–,–
"Cc1cc(C)c(S(=O)(=O)N(C)CCOCC(=O)N2CCn3cccc3C2C)c(C)c1 (stereo not drawn) [Example 66, N,2,4,6-tetramethyl-N-(2-(2-(1-methyl-3,4-dihydropyrrolo[1,2-a]pyrazin-2(1H)-yl)-2-oxoethoxy)ethyl)benzenesulfonamide]",92,87,–,–
"COc1cc(C)c(S(=O)(=O)N(CCOCC(=O)N2CCn3cccc3C2C)Cc2ccccc2)c(C)c1 (stereo not drawn) [Example 45, N-benzyl-4-methoxy-2,6-dimethyl-N-(2-(2-(1-methyl-3,4-dihydropyrrolo[1,2-a]pyrazin-2(1H)-yl)-2-oxoethoxy)ethyl)benzenesulfonamide]",99,83,–,–
"COc1cc(C)c(S(=O)(=O)N(C)CCOCC(=O)N2CCn3c(CCc4cccnc4)ccc3C2)c(C)c1 [Example 170, 4-Methoxy-N,2,6-trimethyl-N-(2-(2-oxo-2-(6-(2-(pyridin-3-yl)ethyl)-3,4-dihydropyrrolo[1,2-a]pyrazin-2(1H)-yl)ethoxy)ethyl)benzenesulfonamide]",98,99,–,–
"Cc1cc(C)c(S(=O)(=O)N(C)CCOCC(=O)N2CCn3c(CN4CCOCC4)ccc3C2c2ccccc2)c(C)c1 (stereo not drawn) [Example 142, N,2,4,6-tetramethyl-N-(2-(2-(6-(morpholinomethyl)-1-phenyl-3,4-dihydro-pyrrolo[1,2-a]pyrazin-2(1H)-yl)-2-oxoethoxy)ethyl)benzenesulfonamide]",101,103,–,–
"COc1cc(C)c(S(=O)(=O)N(CCOCC(=O)N2CCn3cccc3C2c2ccc(C(C)(C)C)cc2)Cc2ccccc2)c(C)c1 (stereo not drawn) [Example 51, N-benzyl-N-(2-(2-(1-(4-tert-butylphenyl)-3,4-dihydropyrrolo[1,2-a]pyrazin-2(1H)-yl)-2-oxoethoxy)ethyl)-4-methoxy-2,6-dimethylbenzenesulfonamide]",85,58,–,–
"COc1cc(C)c(S(=O)(=O)N(C)CCOCC(=O)N2CCn3c(ccc3-c3cccnc3)C2)c(C)c1 [Example 166, 4-Methoxy-N,2,6-trimethyl-N-(2-(2-oxo-2-(6-(pyridin-3-yl)-3,4-dihydropyrrolo[1,2-a]pyrazin-2(1H)-yl)ethoxy)ethyl)benzenesulfonamide]",99,100,–,–
"COc1cc(C)c(S(=O)(=O)N(C)CCOCC(=O)N2CCn3c(CN4CCCCC4)nnc3C2)c(C)c1 [Example 163, 4-Methoxy-N,2,6-trimethyl-N-(2-(2-oxo-2-(3-(piperidin-1-ylmethyl)-5,6-dihydro-[1,2,4]triazolo[4,3-a]pyrazin-7(8H)-yl)ethoxy)ethyl)benzenesulfonamide]",103,–,–,–
"O=C(C[C@@H](NS(=O)(=O)c1ccc2ccccc2c1)c1ccccc1)N1CCn2c(CN3CCCCC3)nnc2C1 [Example 164, (R)-N-(3-oxo-1-phenyl-3-(3-(piperidin-1-ylmethyl)-5,6-dihydro-[1,2,4]triazolo[4,3-a]pyrazin-7(8H)-yl)propyl)naphthalene-2-sulfonamide]",102,–,–,–
